Source: patent publication US9863966B2 (priority 2012, dated 2018)

Legend:
[1] = system: monoclonal antibody from hybridoma cell line NM4.3F5.C10.B7.B2.B2.C4; format: binding, sheep
[2] = cited from earlier work; for plasma elimination half-life: Demerol Prescribing Information datasheet; for half-life: Latta et al., 2002
[3] = cited from earlier work
[4] = cited from earlier work; remark: listed apart in the source

Row | Structure (SMILES) | % Cross Reactivity [1] [%] | also measured
1 | O=C(O)C(O)C(O)C(=O)O.Oc1ccc2c(c1)[C@@]13CCCC[C@@]1(O)[C@@H](C2)N(CC1CCC1)CC3 [Butorphanol Tartrate] | <1 | –
2 | COc1ccc2c3c1O[C@H]1[C@@H](O)C=C[C@H]4[C@@H](C2)N(C)CC[C@@]341 [Codeine] | <1 | –
3 | CCO[C@@H]1O[C@H](C(=O)O)[C@@H](O)[C@H](O)[C@H]1O [Ethyl-Glucuronide] | <1 | –
4 | COc1ccc2c3c1O[C@H]1C(=O)CC[C@H]4[C@@H](C2)N(C)CC[C@]314 [Hydrocodone] | <1 | –
5 | CN1CC[C@]23CCCC[C@H]2[C@H]1Cc1ccc(O)cc13 [Levorphanol] | <1 | –
6 | CCOC(=O)C1(c2ccccc2)CCN(C)CC1 [Meperidine] | 102.5 | eliminated in the form of normeperidine ([2]; Baselt, 2008): around 17%; excreted unchanged in urine ([2]; Baselt, 2008): About 7%; plasma elimination half-life [2]: 3 to 4 h; half-life [2]: 3 to 6 h; fraction reaching systematic circulation (first-pass metabolism) ([2]; in vivo): around 50%; time of peak plasma concentrations after administration ([2]; intramuscular injection): 1 to 2 h; administered dose excreted in urine ([2]; within 24 hours, Moffat et al., 2003): Approximately 70%; daily dose reported to cause grand mal seizures ([3]; as low as, Latta et al., 2002): ≥ 260 mg; dose reported as causing muscle twitches or tremors ([3]; as low as, Latta et al., 2002): ≥ 46 mg per day; potency compared to morphine (times less potent) ([4]; Latta et al., 2002): 7-10 times
7 | CCCC(C)(COC(N)=O)COC(N)=O [Meprobamate] | <1 | –
8 | CCC(=O)C(CC(C)N(C)C)(c1ccccc1)c1ccccc1 (stereo not shown) [Methadone] | <1 | –
9 | Oc1ccc2c3c1O[C@H]1[C@@H](O)CC[C@@]4(O)[C@@H](C2)N(CC2CCC2)CC[C@]314 [Nalbuphine] | <1 | –
10 | NC1(c2ccccc2Cl)CCCCC1=O (stereo not shown) [Norketamine] | <1 | –
11 | CCOC(=O)C1(c2ccccc2)CCNCC1 [Normeperidine] | 100 | plasma elimination half-life [2]: 15 to 20 h; half-life [2]: 14 to 48 h; convulsant activity relative to parent compound ([3]; relative to meperidine): more active as a convulsant; neurotoxic potential relative to parent compound ([3]; relative to meperidine): up to 3 times; analgesic effectiveness relative to parent compound ([4]; relative to meperidine): half as effective; IC50 (antibody sensitivity) [1]: about 0.5 ng/ml
12 | COc1ccc2c3c1O[C@H]1C(=O)CC[C@@]4(O)[C@@H](C2)N(C)CC[C@]314 [Oxycodone] | <1 | –
13 | CN1CC[C@]23c4c5ccc(O)c4O[C@H]2C(=O)CC[C@@]3(O)[C@H]1C5 [Oxymorphone] | <1 | –
14 | CC(C)=CCN1CCC2(C)c3cc(O)ccc3CC1C2C (stereo not shown) [Pentazocine] | <1 | –
15 | O=C(O)[C@H]1O[C@@H](OCC(Cl)(Cl)Cl)[C@H](O)[C@@H](O)[C@@H]1O [Urochloralic Acid] | <1 | –
16 | CCN(C(C)=O)c1cccc(-c2ccnc3c(C#N)cnn23)c1 [Zaleplon] | <1 | –
17 | Cc1ccc(-c2nc3ccc(C)cn3c2CC(=O)N(C)C)cc1 [Zolpidem] | <1 | –
18 | CN1CCN(C(=O)OC2c3nccnc3C(=O)N2c2ccc(Cl)cn2)CC1 (stereo not shown) [Zopiclone] | <1 | –
